Legend:
Type in all cases: in vivo
Setaria viridis = assay: Test Example 5: herbicidal effect by foliage application, plastic box (symbol G); details: 320 g/ha, 3 weeks after application
Procedure, shortened: (§1)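 Visual herbicidal score, taken three weeks post-application, of seedlings sprayed on the foliage with water-diluted emulsion at a predetermined amount; plants were 14 days old, greenhouse-raised at 25° C. to 30° C.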

[1] = system: Echinochloa crus-galli var. crus-galli; assay: Test Example 3: herbicidal effect by foliage application, Wagner pot (symbol H); details: application herbicide amount 320 g/ha
Procedure, shortened: (§2)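 In a shallow-flooded alluvial soil system held at 25–30 °C, plants including rice grew for 14 days and were then sprayed over the foliage with emulsion diluted to a fixed herbicide amount. Visual rating followed at 3 weeks.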

Scirpus juncoides = assay: Test Example 1: herbicidal activity, application before weed generation in submerged conditions (symbol B); details: application herbicide amount 320 g/ha
From the text: (§3) Herbicidal Activity Test by Application Before Weed Generation in Submerged Conditions
(§4) After alluvial soil was placed into 1/10000 are of Wagner pot, water was poured and mixed to form a submerged condition having a water depth of 4 cm. Seeds of Echinochloa oryzacola Vasing., Scirpus juncoides, and Monochoria vaginalis were sowed in a mixed manner in the above pot and thereafter 2.5 leaf stage rice plant seedlings were transplanted thereto. On the day of sowing seeds, the emulsion agent of the compound of the present invention prepared in accordance with Formulation Example 2 was diluted with water so as to be a predetermined herbicide amount and the diluted emulsion agent was applied to the surface of the water. The pot was placed in a greenhouse of 25° C. to 30° C. to grow plant. 3 weeks later from the herbicide application, the effect to each plant was investigated in accordance with the following criteria.
(§5) 5 Herbicidal ratio of 90% or more (almost completely withered)
(§6) 4 Herbicidal ratio of 70% or higher and lower than 90%
(§7) 3 Herbicidal ratio of 40% or higher and lower than 70%
(§8) 2 Herbicidal ratio of 20% or higher and lower than 40%
(§9) 1 Herbicidal ratio of 5% or higher and lower than 20%
(§10) 0 Herbicidal ratio of 5% or lower (almost no effect)

Veronica persica = assay: Test Example 5: herbicidal effect by foliage application, plastic box (symbol R); details: 320 g/ha, 3 weeks after application
Procedure, shortened: as §1

soybean = assay: Test Example 5: effect on crop by foliage application, plastic box (symbol d); details: 320 g/ha, 3 weeks after application
Procedure, shortened: (§11)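 Foliage-application test plants come from spot sowing in sterilized diluvial soil under a soil layer of about 1.5 cm, grown at 25° C. to 30° C. in a greenhouse.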

[2] = system: directly sowed rice plant; assay: Test Example 3: effect on crop by foliage application, Wagner pot (symbol b); details: application herbicide amount 320 g/ha
Procedure, shortened: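 Wagner pot (1/10000 are), alluvial soil, submerged 0.1–0.5 cm; sown E. crus-galli var. crus-galli, L. chinensis, C. difformis, rice; greenhouse 25–30 °C.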

Lolium multiflorum Lam. = assay: Test Example 5: herbicidal effect by foliage application, plastic box (symbol K); details: 320 g/ha, 3 weeks after application
Procedure, shortened: as §1

Monochoria vaginalis = assay: Test Example 1: herbicidal activity, application before weed generation in submerged conditions (symbol C); details: application herbicide amount 320 g/ha
From the text: as §3, §4, §5, §6, §7, §8, §9, §10

Amaranthus retroflexus = assay: Test Example 5: herbicidal effect by foliage application, plastic box (symbol N); details: 320 g/ha, 3 weeks after application
Procedure, shortened: as §1

beet = assay: Test Example 5: effect on crop by foliage application, plastic box (symbol f); details: 320 g/ha, 3 weeks after application
Procedure, shortened: as §11

wheat = assay: Test Example 5: effect on crop by foliage application, plastic box (symbol e); details: 320 g/ha, 3 weeks after application
Procedure, shortened: as §11

Alopecurus myosuroides = assay: Test Example 5: herbicidal effect by foliage application, plastic box (symbol J); details: 320 g/ha, 3 weeks after application
Procedure, shortened: as §1

Leptochloa chinensis = assay: Test Example 3: herbicidal effect by foliage application, Wagner pot (symbol D); details: application herbicide amount 320 g/ha
Procedure, shortened: as §2

Cyperus difformis = assay: Test Example 3: herbicidal effect by foliage application, Wagner pot (symbol E); details: application herbicide amount 320 g/ha
Procedure, shortened: as §2

Abutilon theophrasti = assay: Test Example 5: herbicidal effect by foliage application, plastic box (symbol M); details: 320 g/ha, 3 weeks after application
Procedure, shortened: as §1

Stellaria media = assay: Test Example 5: herbicidal effect by foliage application, plastic box (symbol P); details: 320 g/ha, 3 weeks after application
Procedure, shortened: as §1

Avena fatua = assay: Test Example 5: herbicidal effect by foliage application, plastic box (symbol I); details: 320 g/ha, 3 weeks after application
Procedure, shortened: as §1

[3] = system: Echinochloa crus-galli var. crus-galli; assay: Test Example 5: herbicidal effect by foliage application, plastic box (symbol H); details: 320 g/ha, 3 weeks after application
Procedure, shortened: as §1

corn = assay: Test Example 5: effect on crop by foliage application, plastic box (symbol c); details: 320 g/ha, 3 weeks after application
Procedure, shortened: as §11

[4] = system: Echinochloa oryzacola Vasing.; assay: Test Example 1: herbicidal activity, application before weed generation in submerged conditions (symbol A); details: application herbicide amount 320 g/ha
From the text: as §3, §4, §5, §6, §7, §8, §9, §10

rice plant = assay: Test Example 5: effect on crop by foliage application, plastic box (symbol b); details: 320 g/ha, 3 weeks after application
Procedure, shortened: as §11

Chenopodium album = assay: Test Example 5: herbicidal effect by foliage application, plastic box (symbol O); details: 320 g/ha, 3 weeks after application
Procedure, shortened: as §1

Digitaria ciliaris = assay: Test Example 5: herbicidal effect by foliage application, plastic box (symbol F); details: 320 g/ha, 3 weeks after application
Procedure, shortened: as §1

Galium spurium = assay: Test Example 5: herbicidal effect by foliage application, plastic box (symbol Q); details: 320 g/ha, 3 weeks after application
Procedure, shortened: as §1

transplanted rice plant = assay: Test Example 1: effect on crop, application before weed generation in submerged conditions (symbol a); details: application herbicide amount 320 g/ha
Description: as §3
as §4, with “On the day of sowing seeds, the emulsion agent of the compound of the present invention prepared in accordance with Formulation Example 2 was diluted with water so as to be a predetermined herbicide amount and the diluted emulsion agent was applied to the surface of the water.” left out
as §5, §6, §7, §8, §9, §10

rapeseed = assay: Test Example 5: effect on crop by foliage application, plastic box (symbol g); details: 320 g/ha, 3 weeks after application
Procedure, shortened: as §11

Apera spica-venti = assay: Test Example 5: herbicidal effect by foliage application, plastic box (symbol L); details: 320 g/ha, 3 weeks after application
Procedure, shortened: as §1

For `CC(CC1CC(OC(=O)N(C)C)=C(c2c(C)cc(-c3ccc(Cl)cc3)cc2C)C1=O)=NOCC(F)(F)F` (mixture of isomers) [9-026], the “G: Setaria viridis, herbicidal effect grade” value (Setaria viridis) was 4 (Herbicidal ratio of 70% or higher and lower than 90%), the “H (Echinochloa crus-galli var. crus-galli) herbicidal effect grade” value ([1]; Table 24) was 0 (Herbicidal ratio of 5% or lower (almost no effect)) and the “B (Scirpus juncoides) herbicidal effect grade” value (Scirpus juncoides) was 0 (Herbicidal ratio of 5% or lower (almost no effect)). The “R: Veronica persica, herbicidal effect grade” value (Veronica persica) was 0 (Herbicidal ratio of 5% or lower (almost no effect)), the “d: soybean, effect on crop grade” value (soybean) was 0 (Herbicidal ratio of 5% or lower (almost no effect)) and the “b (directly sowed rice plant) effect on crop grade” value ([2]; Table 24) was 0 (Herbicidal ratio of 5% or lower (almost no effect)). For the same compound, the “K: Lolium multiflorum Lam., herbicidal effect grade” value (Lolium multiflorum Lam.) was 0 (Herbicidal ratio of 5% or lower (almost no effect)), the “C (Monochoria vaginalis) herbicidal effect grade” value (Monochoria vaginalis) was 0 (Herbicidal ratio of 5% or lower (almost no effect)) and the “N: Amaranthus retroflexus, herbicidal effect grade” value (Amaranthus retroflexus) was 0 (Herbicidal ratio of 5% or lower (almost no effect)). For the same compound, the “f: beet, effect on crop grade” value (beet) was 0 (Herbicidal ratio of 5% or lower (almost no effect)), the “e: wheat, effect on crop grade” value (wheat) was 0 (Herbicidal ratio of 5% or lower (almost no effect)) and the “J: Alopecurus myosuroides, herbicidal effect grade” value (Alopecurus myosuroides) was 0 (Herbicidal ratio of 5% or lower (almost no effect)). The “D (Leptochloa chinensis) herbicidal effect grade” value (Leptochloa chinensis; Table 24) was 3 (Herbicidal ratio of 40% or higher and lower than 70%), the “E herbicidal effect grade” value (Cyperus difformis; Table 24) was 0 (Herbicidal ratio of 5% or lower (almost no effect)) and the “M: Abutilon theophrasti, herbicidal effect grade” value (Abutilon theophrasti) was 0 (Herbicidal ratio of 5% or lower (almost no effect)). The “P: Stellaria media, herbicidal effect grade” value (Stellaria media) was 0 (Herbicidal ratio of 5% or lower (almost no effect)), the “I: Avena fatua, herbicidal effect grade” value (Avena fatua) was 3 (Herbicidal ratio of 40% or higher and lower than 70%) and the “H: Echinochloa crus-galli var. crus-galli, herbicidal effect grade” value [3] was 0 (Herbicidal ratio of 5% or lower (almost no effect)). For the same compound, the “c: corn, effect on crop grade” value (corn) was 5 (Herbicidal ratio of 90% or more (almost completely withered)), the “A (Echinochloa oryzacola Vasing.) herbicidal effect grade” value [4] was 4 (Herbicidal ratio of 70% or higher and lower than 90%) and the “b: directly sowed rice plant, effect on crop grade” value (rice plant) was 0 (Herbicidal ratio of 5% or lower (almost no effect)). The “O: Chenopodium album, herbicidal effect grade” value (Chenopodium album) was 0 (Herbicidal ratio of 5% or lower (almost no effect)), the “F: Digitaria ciliaris, herbicidal effect grade” value (Digitaria ciliaris) was 5 (Herbicidal ratio of 90% or more (almost completely withered)) and the “Q: Galium spurium, herbicidal effect grade” value (Galium spurium) was 0 (Herbicidal ratio of 5% or lower (almost no effect)). The “a (transplanted rice plant) effect on crop grade” value (transplanted rice plant) was 0 (Herbicidal ratio of 5% or lower (almost no effect)), the “g: rapeseed, effect on crop grade” value (rapeseed) was 0 (Herbicidal ratio of 5% or lower (almost no effect)) and the “L: Apera spica-venti, herbicidal effect grade” value (Apera spica-venti) was 0 (Herbicidal ratio of 5% or lower (almost no effect)).
With `COCCOc1cc(C)c(C2=C(O)CC(CC(C)=NOC)C2=O)c(C)c1` (stereo not drawn) [6-098] the “G: Setaria viridis, herbicidal effect (criteria of Test Example 1)” value (Setaria viridis) was 3 (Herbicidal ratio of 40% or higher and lower than 70%), the “herbicidal effect on H (Echinochloa crus-galli var. crus-galli), grade 0-5” value [1] was 3 (Herbicidal ratio of 40% or higher and lower than 70%) and the “Herbicidal effect grade, B: Scirpus juncoides” value (Scirpus juncoides) was 1 (Herbicidal ratio of 5% or higher and lower than 20%). For the same compound, the “R: Veronica persica, herbicidal effect (criteria of Test Example 1)” value (Veronica persica) was 0 (Herbicidal ratio of 5% or lower (almost no effect)), the “d: soybean, effect on crop (criteria of Test Example 1)” value (soybean) was 0 (Herbicidal ratio of 5% or lower (almost no effect)) and the “effect on crop b (directly sowed rice plant), grade 0-5” value [2] was 5 (Herbicidal ratio of 90% or more (almost completely withered)). The “K: Lolium multiflorum Lam., herbicidal effect (criteria of Test Example 1)” value (Lolium multiflorum Lam.) was 5 (Herbicidal ratio of 90% or more (almost completely withered)), the “Herbicidal effect grade, C: Monochoria vaginalis” value (Monochoria vaginalis) was 0 (Herbicidal ratio of 5% or lower (almost no effect)) and the “N: Amaranthus retroflexus, herbicidal effect (criteria of Test Example 1)” value (Amaranthus retroflexus) was 0 (Herbicidal ratio of 5% or lower (almost no effect)). For the same compound, the “f: beet, effect on crop (criteria of Test Example 1)” value (beet) was 0 (Herbicidal ratio of 5% or lower (almost no effect)), the “e: wheat, effect on crop (criteria of Test Example 1)” value (wheat) was 2 (Herbicidal ratio of 20% or higher and lower than 40%) and the “J: Alopecurus myosuroides, herbicidal effect (criteria of Test Example 1)” value (Alopecurus myosuroides) was 3 (Herbicidal ratio of 40% or higher and lower than 70%). The “herbicidal effect on D (Leptochloa chinensis), grade 0-5” value (Leptochloa chinensis) was 5 (Herbicidal ratio of 90% or more (almost completely withered)), the “herbicidal effect on E, grade 0-5” value (Cyperus difformis) was 4 (Herbicidal ratio of 70% or higher and lower than 90%) and the “M: Abutilon theophrasti, herbicidal effect (criteria of Test Example 1)” value (Abutilon theophrasti) was 0 (Herbicidal ratio of 5% or lower (almost no effect)). For the same compound, the “P: Stellaria media, herbicidal effect (criteria of Test Example 1)” value (Stellaria media) was 0 (Herbicidal ratio of 5% or lower (almost no effect)), the “I: Avena fatua, herbicidal effect (criteria of Test Example 1)” value (Avena fatua) was 1 (Herbicidal ratio of 5% or higher and lower than 20%) and the “H: Echinochloa crus-galli var. crus-galli, herbicidal effect (criteria of Test Example 1)” value [3] was 2 (Herbicidal ratio of 20% or higher and lower than 40%). The “c: corn, effect on crop (criteria of Test Example 1)” value (corn) was 1 (Herbicidal ratio of 5% or higher and lower than 20%), the “Herbicidal effect grade, A: Echinochloa oryzacola Vasing.” value [4] was 0 (Herbicidal ratio of 5% or lower (almost no effect)) and the “b: directly sowed rice plant, effect on crop (criteria of Test Example 1)” value (rice plant) was 2 (Herbicidal ratio of 20% or higher and lower than 40%). The “O: Chenopodium album, herbicidal effect (criteria of Test Example 1)” value (Chenopodium album) was 0 (Herbicidal ratio of 5% or lower (almost no effect)), the “F: Digitaria ciliaris, herbicidal effect (criteria of Test Example 1)” value (Digitaria ciliaris) was 3 (Herbicidal ratio of 40% or higher and lower than 70%) and the “Q: Galium spurium, herbicidal effect (criteria of Test Example 1)” value (Galium spurium) was 0 (Herbicidal ratio of 5% or lower (almost no effect)). For the same compound, the “Effect grade on crop, a: transplanted rice plant” value (transplanted rice plant) was 1 (Herbicidal ratio of 5% or higher and lower than 20%), the “g: rapeseed, effect on crop (criteria of Test Example 1)” value (rapeseed) was 0 (Herbicidal ratio of 5% or lower (almost no effect)) and the “L: Apera spica-venti, herbicidal effect (criteria of Test Example 1)” value (Apera spica-venti) was 4 (Herbicidal ratio of 70% or higher and lower than 90%).

Source: US11000033B2, “Ketone or oxime compound, and herbicide” (NISSAN CHEMICAL CORPORATION, priority 2014, dated 2021)
